The test system of series [1] is MM1.S. As to the kind of experiment: Antiproliferative activity against human MM1.S cells assessed as inhibition of cell proliferation incubated for 48 hrs by CCK8 assay. It is filed as functional, cell-based. For orientation: Tetrazolium assays rely on reduction of a dye to a coloured formazan, in cell work by metabolically active cells.
In series [2] the test system is U-266. The experiment in a line: Antiproliferative activity against human U-266 cells assessed as inhibition of cell proliferation incubated for 48 hrs by CCK8 assay. The conditions noted are these: U-266, 48 h. The format is functional, cell-based.
In series [3] the test system is RPMI-8226. The experiment in a line: Antiproliferative activity against human RPMI-8226 cells assessed as inhibition of cell proliferation incubated for 48 hrs by CCK8 assay. It is filed as functional, cell-based. The conditions noted are these: RPMI-8226, 48 h.
Series [4] is described as follows: Cytotoxicity against human L02 cells assessed as inhibition of cell proliferation incubated for 48 hrs by CCK8 assay. The format is toxicity, cell-based.
Series [5] deals with T1, Protein deacetylase HDAC6 (Homo sapiens, UniProt Q9UBN7).
T1 sequence (Q9UBN7 whole entry): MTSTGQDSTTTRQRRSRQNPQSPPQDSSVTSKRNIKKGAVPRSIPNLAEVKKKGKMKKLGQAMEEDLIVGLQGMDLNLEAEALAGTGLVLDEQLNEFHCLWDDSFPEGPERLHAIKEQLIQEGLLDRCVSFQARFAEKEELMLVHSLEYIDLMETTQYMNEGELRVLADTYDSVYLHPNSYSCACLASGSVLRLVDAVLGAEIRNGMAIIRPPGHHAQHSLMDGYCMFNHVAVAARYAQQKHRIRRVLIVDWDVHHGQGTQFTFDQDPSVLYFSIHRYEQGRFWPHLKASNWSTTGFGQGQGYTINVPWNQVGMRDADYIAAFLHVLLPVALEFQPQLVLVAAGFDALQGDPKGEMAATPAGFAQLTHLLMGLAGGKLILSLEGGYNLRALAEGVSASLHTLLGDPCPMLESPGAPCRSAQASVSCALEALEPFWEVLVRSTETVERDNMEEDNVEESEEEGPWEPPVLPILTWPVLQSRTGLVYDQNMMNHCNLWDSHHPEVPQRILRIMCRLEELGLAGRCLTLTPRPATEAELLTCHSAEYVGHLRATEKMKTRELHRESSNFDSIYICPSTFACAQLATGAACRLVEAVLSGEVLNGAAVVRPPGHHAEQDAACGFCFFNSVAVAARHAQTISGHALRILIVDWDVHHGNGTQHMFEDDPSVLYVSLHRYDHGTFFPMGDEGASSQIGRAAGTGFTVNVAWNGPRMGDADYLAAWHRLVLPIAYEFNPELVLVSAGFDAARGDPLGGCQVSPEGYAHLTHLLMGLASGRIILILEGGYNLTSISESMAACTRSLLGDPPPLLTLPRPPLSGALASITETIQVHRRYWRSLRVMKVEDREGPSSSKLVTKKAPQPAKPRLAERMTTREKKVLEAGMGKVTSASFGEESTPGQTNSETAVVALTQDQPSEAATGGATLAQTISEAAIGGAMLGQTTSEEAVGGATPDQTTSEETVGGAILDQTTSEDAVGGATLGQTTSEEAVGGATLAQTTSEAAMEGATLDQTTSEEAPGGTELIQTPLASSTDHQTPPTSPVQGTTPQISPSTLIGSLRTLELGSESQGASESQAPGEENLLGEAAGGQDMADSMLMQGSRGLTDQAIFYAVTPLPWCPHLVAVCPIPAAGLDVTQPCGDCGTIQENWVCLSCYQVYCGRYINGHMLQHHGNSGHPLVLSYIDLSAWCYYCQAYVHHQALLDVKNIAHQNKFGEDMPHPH
The experiment in a line: Inhibition of N-terminal GST-tagged human full length recombinant HDAC6 (1 to 1215 residues) expressed in Sf9 cells using Boc-Lys(acetyI)-AMC as substrate preincubated with enzyme for 1 hr followed by substrate addition and measured after 30 mins by fluorescence based analysis.

In series [6] the target is T2, Class 1 histone deacetylase (Homo sapiens) (UniProt Q13547+O15379+Q92769+Q9BY41). As to the kind of experiment: Inhibition of class 1 HDAC in human A549 cells assessed as acetyl histone H4 level at 2 uM incubated for 5 hrs by western blot analysis relative to control. It is filed as cell-based. On the technique in general: A western blot detects proteins with antibodies after separation by electrophoresis.
T2 sequence (O15379 whole entry, looked up): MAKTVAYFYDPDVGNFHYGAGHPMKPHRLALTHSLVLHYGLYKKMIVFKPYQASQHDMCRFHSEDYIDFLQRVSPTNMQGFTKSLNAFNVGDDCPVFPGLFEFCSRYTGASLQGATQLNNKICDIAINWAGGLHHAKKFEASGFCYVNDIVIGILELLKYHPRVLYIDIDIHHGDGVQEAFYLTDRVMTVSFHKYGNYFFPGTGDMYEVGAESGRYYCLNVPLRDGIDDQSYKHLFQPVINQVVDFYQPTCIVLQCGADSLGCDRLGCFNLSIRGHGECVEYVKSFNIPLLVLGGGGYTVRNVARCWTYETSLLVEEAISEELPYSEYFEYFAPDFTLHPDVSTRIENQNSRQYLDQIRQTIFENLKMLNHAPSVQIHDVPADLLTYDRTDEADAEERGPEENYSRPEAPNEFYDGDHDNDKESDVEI
T2 sequence (Q13547 whole entry, looked up): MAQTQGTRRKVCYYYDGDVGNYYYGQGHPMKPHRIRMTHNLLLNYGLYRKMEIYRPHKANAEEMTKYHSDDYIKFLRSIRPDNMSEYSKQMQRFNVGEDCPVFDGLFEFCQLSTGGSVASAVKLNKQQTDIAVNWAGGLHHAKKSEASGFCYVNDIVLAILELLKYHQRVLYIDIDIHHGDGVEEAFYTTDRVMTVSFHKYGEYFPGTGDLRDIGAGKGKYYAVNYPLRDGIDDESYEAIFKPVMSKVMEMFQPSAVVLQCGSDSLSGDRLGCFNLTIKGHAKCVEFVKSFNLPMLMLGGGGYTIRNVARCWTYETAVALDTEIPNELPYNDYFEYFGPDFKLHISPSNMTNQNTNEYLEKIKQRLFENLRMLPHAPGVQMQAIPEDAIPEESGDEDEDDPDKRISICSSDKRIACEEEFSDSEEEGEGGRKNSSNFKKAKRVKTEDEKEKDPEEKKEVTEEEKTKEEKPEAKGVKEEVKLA
T2 sequence (Q92769 whole entry, looked up): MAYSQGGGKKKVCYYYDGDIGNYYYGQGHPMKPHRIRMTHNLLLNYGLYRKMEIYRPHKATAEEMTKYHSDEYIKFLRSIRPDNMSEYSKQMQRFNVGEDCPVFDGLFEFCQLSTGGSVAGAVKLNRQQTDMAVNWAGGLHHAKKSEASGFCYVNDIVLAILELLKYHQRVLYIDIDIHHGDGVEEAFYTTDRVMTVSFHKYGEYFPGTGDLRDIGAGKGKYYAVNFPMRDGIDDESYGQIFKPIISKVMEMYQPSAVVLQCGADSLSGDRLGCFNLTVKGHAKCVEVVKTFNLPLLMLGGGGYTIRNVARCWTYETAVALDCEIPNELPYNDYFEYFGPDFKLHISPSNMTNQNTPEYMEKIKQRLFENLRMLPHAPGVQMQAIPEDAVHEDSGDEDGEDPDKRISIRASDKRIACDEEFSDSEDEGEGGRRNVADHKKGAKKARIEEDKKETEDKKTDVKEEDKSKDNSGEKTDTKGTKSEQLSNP
T2 sequence (Q9BY41 whole entry, looked up): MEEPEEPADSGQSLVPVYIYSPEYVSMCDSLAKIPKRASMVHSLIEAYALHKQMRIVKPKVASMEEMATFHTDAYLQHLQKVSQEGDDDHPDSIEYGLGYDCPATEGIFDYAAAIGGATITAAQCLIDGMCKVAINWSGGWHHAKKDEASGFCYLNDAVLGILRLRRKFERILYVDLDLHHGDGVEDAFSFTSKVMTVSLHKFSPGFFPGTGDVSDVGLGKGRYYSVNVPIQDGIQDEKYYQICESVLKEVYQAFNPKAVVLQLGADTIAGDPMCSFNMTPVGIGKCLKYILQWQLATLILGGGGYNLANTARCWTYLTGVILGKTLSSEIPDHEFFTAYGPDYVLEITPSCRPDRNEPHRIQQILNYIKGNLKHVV

For series [7], the species on record is Homo sapiens. As to the kind of experiment: Selectivity index, ratio of IC50 for inhibition of C-terminal FLAG-tagged human full length recombinant HDAC2 (1 to 488 residues) expressed in Sf9 cells to IC50 for inhibition of N-terminal GST-tagged human full length recombinant HDAC6 (1 to 1215 residues) expressed in Sf9 cells.
The target of series [8] is Histone deacetylase 2 (Homo sapiens, UniProt Q92769). The experiment in a line: Inhibition of C-terminal FLAG-tagged human full length recombinant HDAC2 (1 to 488 residues) expressed in Sf9 cells using Boc-Lys(acetyI)-AMC as substrate preincubated with enzyme for 1 hr followed by substrate addition and measured after 30 mins by fluorescence based analysis.
Chain of Histone deacetylase 2 (Q92769 whole entry, the tested form may be a part): as the sequence (Q92769 whole entry, looked up) above
The target in series [9] is T3, Protein deacetylase HDAC6 (Homo sapiens) (UniProt Q9UBN7).
T3 sequence (whole entry): T1 sequence (Q9UBN7 whole entry)
The experiment in a line: Inhibition of HDAC6 in human A549 cells assessed as acetyl alpha-tubulin level at 2 uM incubated for 5 hrs by western blot analysis relative to control. It is filed as cell-based.

Series [10] addresses T2, Class 1 histone deacetylase (Homo sapiens). As to the kind of experiment: Inhibition of class 1 HDAC in human A549 cells assessed as acetyl histone H4 level at 10 uM incubated for 5 hrs by western blot analysis relative to control. It is filed as cell-based.
In series [11] the target is T3, Protein deacetylase HDAC6 (Homo sapiens). The experiment in a line: Inhibition of HDAC6 in human A549 cells assessed as acetyl alpha-tubulin level at 10 uM incubated for 5 hrs by western blot analysis relative to control. It is filed as cell-based.
Series [12] shares this target. The experiment in a line: Irreversible inhibition of HDAC6 in human A549 cells assessed as acetyl alpha-tubulin level at 2 uM incubated for 5 hrs followed by drug wash-out for 24 hrs by western blot analysis relative to control. It is filed as cell-based.
Series [13] concerns the target T2, Class 1 histone deacetylase (Homo sapiens). As to the kind of experiment: Irreversible inhibition of class 1 HDAC in human A549 cells assessed as acetyl histone H3 level at 2 uM incubated for 5 hrs followed by drug wash-out for 24 hrs by western blot analysis. The format is cell-based.
The target of series [14] is T3, Protein deacetylase HDAC6 (Homo sapiens). As to the kind of experiment: Irreversible inhibition of HDAC6 in human A549 cells assessed as acetyl alpha-tubulin level at 2 uM incubated for 5 hrs followed by drug wash-out for 1 hr by western blot analysis relative to control. The format is cell-based.
Series [15] is described as follows: Effect on HDAC6 protein expression in human A549 cells assessed as change in HDAC6 protein expression at 2 uM incubated for 5 hrs followed by drug wash-out and measured following drug wash-out by western blot analysis relative to control. It is filed as functional.
Series [16] can be described thus: Effect on HDAC6 protein expression in human A549 cells assessed as change in HDAC6 protein expression at 2 uM incubated for 5 hrs followed by drug wash-out for 24 hrs by western blot analysis relative to control. The format is functional.
Series [17] concerns the target T2, Class 1 histone deacetylase (Homo sapiens). The experiment in a line: Irreversible inhibition of class 1 HDAC in human A549 cells assessed as acetyl histone H4 level at 2 uM incubated for 5 hrs followed by drug wash-out for 1 hr by western blot analysis. It is filed as cell-based.
Series [18] in a line: Effect on HDAC6 protein expression in human A549 cells assessed as change in HDAC6 protein expression at 2 uM incubated for 5 hrs followed by drug wash-out for 6 hrs by western blot analysis relative to control. The format is functional.
In series [19] the target is T3, Protein deacetylase HDAC6 (Homo sapiens). The experiment in a line: Irreversible inhibition of HDAC6 in human A549 cells assessed as acetyl alpha-tubulin level at 2 uM incubated for 5 hrs followed by drug wash-out for 6 hrs by western blot analysis relative to control. It is filed as cell-based.
Series [20] deals with T2, Class 1 histone deacetylase (Homo sapiens). As to the kind of experiment: Irreversible inhibition of class 1 HDAC in human A549 cells assessed as acetyl histone H4 level at 2 uM incubated for 5 hrs followed by drug wash-out and measured immediately after drug wash-out by western blot analysis. The format is cell-based.
Series [21] shares this target. As to the kind of experiment: Irreversible inhibition of class 1 HDAC in human A549 cells assessed as acetyl histone H3 level at 2 uM incubated for 5 hrs followed by drug wash-out for 1 hr by western blot analysis. The format is cell-based.
The nature of series [22]: Effect on HDAC6 protein expression in human A549 cells assessed as change in HDAC6 protein expression at 2 uM incubated for 5 hrs followed by drug wash-out for 1 hr by western blot analysis relative to control. The format is functional.
The target of series [23] is T2, Class 1 histone deacetylase (Homo sapiens). The experiment in a line: Irreversible inhibition of class 1 HDAC in human A549 cells assessed as acetyl histone H4 level at 2 uM incubated for 5 hrs followed by drug wash-out for 24 hrs by western blot analysis. It is filed as cell-based.
For series [24] the target is unchanged. The experiment in a line: Irreversible inhibition of class 1 HDAC in human A549 cells assessed as acetyl histone H4 level at 2 uM incubated for 5 hrs followed by drug wash-out for 6 hrs by western blot analysis. The format is cell-based.
The target is the same in series [25]. The experiment in a line: Irreversible inhibition of class 1 HDAC in human A549 cells assessed as acetyl histone H3 level at 2 uM incubated for 5 hrs followed by drug wash-out and measured immediately after drug wash-out by western blot analysis. It is filed as cell-based.
Series [26] has the same target. As to the kind of experiment: Irreversible inhibition of class 1 HDAC in human A549 cells assessed as acetyl histone H3 level at 2 uM incubated for 5 hrs followed by drug wash-out for 6 hrs by western blot analysis. It is filed as cell-based.
The target of series [27] is T3, Protein deacetylase HDAC6 (Homo sapiens). The experiment in a line: Irreversible inhibition of HDAC6 in human A549 cells assessed as acetyl alpha-tubulin level at 2 uM incubated for 5 hrs followed by drug wash-out and measured immediately after drug wash-out by western blot analysis relative to control. It is filed as cell-based.
Series [28] shares this target. The conditions noted are these: A549, dose 80.0 nM, time 5.0 hrs.

The source made the active and inactive calls. The calls are words filed in the database; no cut-off is given here.

Regarding `O=S(=O)(c1ccccc1)c1c(OCc2ccc(CO)cc2)no[n+]1[O-]`, the values for the IC50 in series [1], in [2] and in series [3] were 0.91 µM, 1.5 µM and 1.1 µM, respectively. In addition, the IC50 at 48 h in series [4] was determined as 8.4 µM.
Take `O=C(NO)c1cccc(Oc2no[n+]([O-])c2S(=O)(=O)c2ccccc2)c1`: the results for the IC50 in series [5] and in series [8] were 39.2 µM and 8.1 µM, respectively. In addition, the fold change (FC) was 0.2 in series [6] and 1.1 in series [9]. Also, in series [7], the Ratio IC50 amounted to 0.2.
For the compound `O=S(=O)(c1ccccc1)c1c(OCCCCCCO)no[n+]1[O-]`, the fold change (FC) is 1.3 in series [6], 0.8 in [10], 1.3 in series [9] and 1.2 in series [11].
With `O=C(NO)c1ccc(Oc2no[n+]([O-])c2S(=O)(=O)c2ccccc2)cc1`, the IC50 in [5] came out at 0.16 µM; in series [1] it was 1.1 µM; in [2], 1.3 µM; in series [8], 3.4 µM; in series [3], 1.2 µM. The fold change (FC) in [12] was 2.2; in series [13], 0.7; in series [14], 4.4; in [6] it was 0.5; in [15], 0.9; in series [16], 1.2. For the same compound, the fold change (FC) in series [17] was 1.6; in series [18] it was 1.1; in series [19], 3.7; in series [20], 1; in [21] it was 1.2; in series [9], 2.1. The “fold change (FC)” value in [22] came to 1.1; in [23], 0.6; in series [24] it was 0.9; in series [25], 1.1; in series [26], 0.9; in [27], 3.9. Moreover, the Ratio IC50 in [7] was 21.3. Besides, the IC50 at 48 h in series [4] was 14.3 µM.
Regarding `O=C(CCCCCOc1no[n+]([O-])c1S(=O)(=O)c1ccccc1)NO`, the IC50 in series [5] came to 0.047 µM; in series [1], 0.43 µM; in [2] it was 0.69 µM; in series [3], 0.48 µM. The fold change (FC) in series [12] was 2.5; in [14] it was 2.2; in series [6] it was 2.1; in [17], 4.7; in [20] it was 4.4; in series [9], 3.8. Moreover, the fold change (FC) in [23] was 1.8; in series [27] it was 2. Further, the IC50 at 48 h in [4] turned out to be 8.7 µM.
Regarding `O=C(/C=C/c1ccc(Oc2no[n+]([O-])c2S(=O)(=O)c2ccccc2)cc1)NO`, the IC50 in [5] worked out at 0.31 µM; in series [8], 1 µM. Besides, the fold change (FC) worked out at 1.7 in series [6] and 2.7 in series [9]. Further, the Ratio IC50 in series [7] was found to be 3.2.
On to `O=C(/C=C/COc1no[n+]([O-])c1S(=O)(=O)c1ccccc1)NO`, for which the IC50 came out at 10.4 µM in [5] and 6.6 µM in series [8]. For the same compound, the fold change (FC) in series [6] is 0.5; in series [9] it was 0.8. Also, the Ratio IC50 in [7] was 0.6.
The like results for `COc1cc(C(=O)NO)ccc1Oc1no[n+]([O-])c1S(=O)(=O)c1ccccc1` were, in that order, 2.7 µM, 5.3 µM, 0.4, 1.3 and 2.
Turning to `CN1CCc2c(c3ccccc3n2Cc2ccc(C(=O)NO)cc2)C1`, in [28], the inhibition result is “Active”.
`O=C(NO)c1ccc(COc2nonc2S(=O)(=O)c2ccccc2)cc1`: the IC50 in [1] was 6.4 µM; in series [2] it was over 10 µM; in [3], 6.1 µM. Also, the concentration for half-maximal inhibition (IC50) at 48 h in series [4] is over 30 µM.

Usually IC50 stands for the concentration needed to halve the response being measured.

Values taken from ChEMBL document CHEMBL5346971, “Discovery of the First Irreversible HDAC6 Isoform Selective Inhibitor with Potent Anti-Multiple Myeloma Activity” (J Med Chem, 2023).
